Biological target: human PD-L1 / Human PD-1 (Homo sapiens (Human), UniProt Q9NZQ7)
Assay: Enzyme-Linked Immunosorbent Assay (ELISA), PD-1/PD-L1 binding
Conditions: Table 2; plate-coated human PD-L1, biotinylated human PD-1; read-out: ELISA IC50
Description: Plates were coated with 1 μg/mL of human PD-L1 (obtained from R&D) in PBS overnight at 4° C. The wells were then blocked with PBS containing 2% BSA in PBS (W/V) with 0.05% TWEEN-20 for 1 hour at 37° C. The plates were washed 3 times with PBS/0.05% TWEEN-20 and the samples were diluted to 1:5 in dilution medium in the ELISA plates. Human PD-1 and biotin 0.3 μg/mL (ACRO Biosystems) were added and incubated for 1 hour at 37° C. then washed 3 times with PBS/0.05% TWEEN-20. A second block was added with PBS containing 2% BSA in PBS (W/V)/0.05% TWEEN-20 for 10 min at 37° C. and was washed 3 times with PBS/0.05% TWEEN-20. Streptavidin-HRP was added for 1 hour at 37° C. then washed 3 times with PBS/0.05% TWEEN-20. TMB substrate was added and reacted for 20 min at 37° C. A stop solution (2 N aqueous H2SO4) was added. The absorbance was read at 450 nm using a micro-plate spectrophotometer.
Compounds in Table 2 and Table 3 were prepared by methods as described in the Examples, and evaluated according to the assay below.

Chain of human PD-L1 / Human PD-1 (Q9NZQ7 19-239): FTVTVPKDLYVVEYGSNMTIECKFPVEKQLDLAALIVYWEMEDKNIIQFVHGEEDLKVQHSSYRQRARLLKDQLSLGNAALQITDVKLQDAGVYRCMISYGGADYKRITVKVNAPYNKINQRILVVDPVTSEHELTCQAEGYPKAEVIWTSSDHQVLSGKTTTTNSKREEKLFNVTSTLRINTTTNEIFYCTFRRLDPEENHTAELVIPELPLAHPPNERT

IC50 [nM] | SMILES
500 to 20000 | N#Cc1cncc(COc2cc(O[C@H]3CCc4c(-c5ccccc5F)cccc43)c(Cl)cc2CN2CC[C@H](O)[C@@H](F)C2)c1 [Example 2.114]
100 to 500 | C[C@H](NCc1cc(Cl)c(O[C@H]2CCc3c(-c4ccccc4F)cccc32)cc1OCc1cncc(C#N)c1)C(N)=O [Example 2.168]
100 to 500 | C=CC(=O)NCCNCc1cc(Cl)c(O[C@H]2CCc3c(-c4ccccc4F)cccc32)cc1OCc1cncc(C#N)c1 [Example 2.137]
100 to 500 | N#Cc1cncc(COc2cc(O[C@H]3CCc4c(-c5ccccc5F)cccc43)c(Cl)cc2CN[C@H](C(=O)O)c2ccccc2)c1 [Example 2.178]
< 100 | COc1cccc(-c2cccc3c2CC[C@@H]3Oc2cc(OCc3cncc(C#N)c3)c(CN[C@@H](CO)C(=O)O)cc2Cl)c1F [Example 2.028]
< 100 | N#Cc1cncc(COc2cc(O[C@H]3CCc4c(-c5ccccc5F)cccc43)c(Cl)cc2CNC2(C(=O)O)CCC2)c1 [Example 2.145]
< 100 | N#Cc1cncc(COc2cc(O[C@H]3CCc4c(-c5ccccc5F)cccc43)c(Cl)cc2CN[C@@H](CCC(=O)O)C(=O)O)c1 [Example 2.117]
500 to 20000 | N#Cc1cncc(COc2cc(O[C@H]3CCc4c(-c5ccccc5F)cccc43)c(Cl)cc2CNCC(=O)NO)c1 [Example 2.151]
< 100 | C[C@@H](O)[C@@H](NCc1cc(Cl)c(O[C@H]2CCc3c(-c4ccccc4F)cccc32)cc1OCc1cncc(C#N)c1)C(=O)O [Example 2.129]
< 100 | C[C@H](NCc1cc(Cl)c(O[C@H]2CCc3c(-c4ccccc4F)cccc32)cc1OCc1cncc(C#N)c1)C(=O)O [Example 2.098]
< 100 | N#Cc1cncc(COc2cc(O[C@H]3CCc4c(-c5ccccc5F)cccc43)c(Cl)cc2CN[C@@H](C(=O)O)c2ccccc2)c1 [Example 2.176]
< 100 | N#Cc1cncc(COc2cc(O[C@H]3CCc4c(-c5ccccc5F)cccc43)c(Cl)cc2CNC2(C(=O)O)CCCC2)c1 [Example 2.165]
100 to 500 | COc1cccc(F)c1-c1cccc2c1CC[C@@H]2Oc1cc(OCc2cncc(C#N)c2)c(CN[C@@H](CO)C(=O)O)cc1Cl [Example 2.105]
< 100 | N#Cc1cncc(COc2cc(O[C@H]3CCc4c(-c5ccccc5F)cccc43)c(Cl)cc2CN2CC[C@@H](O)C2)c1 [Example 2.019]
< 100 | N#Cc1cncc(COc2cc(O[C@H]3CCc4c(-c5cccc(F)c5)cccc43)c(Cl)cc2CN[C@@H](CO)C(=O)O)c1 [Example 2.010]
< 100 | N#Cc1cncc(COc2cc(O[C@H]3CCc4c(-c5ccc6c(c5F)OCCO6)cccc43)c(Cl)cc2CN[C@@H](CO)C(=O)O)c1 [Example 2.057]
100 to 500 | C[C@@H](O)[C@H](NC(=O)CNCc1cc(Cl)c(O[C@H]2CCc3c(-c4ccccc4F)cccc32)cc1OCc1cncc(C#N)c1)C(=O)O [Example 2.135]

Further lines, the compound ahead of its results:

SMILES | IC50 [nM]
CCOc1cc(O[C@H]2CCc3c(-c4ccccc4F)cccc32)c(Cl)cc1CN[C@H](C(=O)O)[C@@H](C)O [Example 2.157] | 100 to 500
COc1ccc(F)c(-c2cccc3c2CC[C@@H]3Oc2cc(OCc3cncc(C#N)c3)c(CN3CC(O)C3)cc2Cl)c1 [Example 2.077] | 100 to 500
OC1CCN(Cc2cc(Cl)c(O[C@H]3CCc4c(-c5ccccc5F)cccc43)cc2OCc2cnc(N3CCC(O)CC3)nc2)CC1 [Example 2.109] | 500 to 20000
N#Cc1cncc(COc2cc(O[C@@H]3CCc4c(-c5ccccc5F)cccc43)c(Cl)cc2CN2CCC(O)CC2)c1 [Example 2.136] | 100 to 500
N#Cc1cncc(COc2cc(O[C@H]3CCc4c(-c5ccc6c(c5)OCCO6)cccc43)c(Cl)cc2CN2CC(O)C2)c1 [Example 2.050] | < 100
N#Cc1cccc(COc2cc(O[C@H]3CCc4c(-c5ccccc5F)cccc43)c(Cl)cc2CN2CCC(O)CC2)c1 [Example 2.110] | 500 to 20000
CCOc1cc(O[C@H]2CCc3c(-c4ccccc4F)cccc32)c(Cl)cc1CN[C@@H](C)C(=O)O [Example 2.154] | 100 to 500
COc1ncc(COc2cc(O[C@H]3CCc4c(-c5ccccc5F)cccc43)c(Cl)cc2CN2CCC(O)CC2)cn1 [Example 2.131] | 100 to 500
OC1CCN(Cc2cc(Cl)c(O[C@H]3CCc4c(-c5ccccc5F)cccc43)cc2OCc2ccc(C(F)(F)F)nc2)CC1 [Example 2.096] | 500 to 20000
N#Cc1cncc(COc2cc(O[C@H]3CCc4c(-c5ccc6c(c5F)OCCO6)cccc43)c(Cl)cc2CN2CCC(O)CC2)c1 [Example 2.058] | < 100
COc1cccc(-c2cccc3c2CC[C@@H]3Oc2cc(OCc3cncc(C#N)c3)c(CN3CC(O)C(C(=O)O)C3)cc2Cl)c1F (stereo partly shown) [Example 2.064] | < 100
N#Cc1cncc(COc2cc(OC3CCc4c(-c5ccccc5)cccc43)c(Cl)cc2CN2CC(O)C2)c1 (stereo not shown) [Example 1.007] | 100 to 500
O=C(O)[C@H](CO)NCc1cc(Cl)c(O[C@H]2CCc3c(-c4ccccc4F)cccc32)cc1OCC1CC1 [Example 2.038] | 100 to 500

Same assay, conditions: Table 3; plate-coated human PD-L1, biotinylated human PD-1; read-out: ELISA IC50

IC50 [nM] | SMILES
100 to 500 | N#Cc1cncc(COc2cc(O[C@H]3CCc4c(-c5ccccc5F)cccc43)c(Cl)cc2CNCC(=O)N[C@@H](CO)C(=O)O)c1 [Example 3.050]
< 100 | N#Cc1cncc(COc2cc(OC3CCc4c(-c5ccccc5F)cccc43)c(F)cc2CN[C@@H](CO)C(=O)O)c1 (stereo partly shown) [Example 3.070]
< 100 | Cn1cnc(CNCc2cc(Cl)c(O[C@H]3CCc4c(-c5ccccc5F)cccc43)cc2OCc2cncc(C#N)c2)c1 [Example 3.091]
< 100 | C[C@H](NC(=O)[C@H](C)NCc1cc(Cl)c(O[C@H]2CCc3c(-c4ccccc4F)cccc32)cc1OCc1cncc(C#N)c1)C(=O)O [Example 3.060]
< 100 | N#Cc1cncc(COc2cc(O[C@H]3CCc4c(-c5ccccc5F)cccc43)c(Cl)cc2CNC2CCOCC2)c1 [Example 3.072]
500 to 20000 | N#Cc1cncc(COc2cc(O[C@H]3CCc4c(-c5ccccc5F)cccc43)c(Cl)cc2CN[C@@H](Cc2c[nH]cn2)C(=O)NCC(=O)NCC(=O)O)c1 [Example 3.056]
< 100 | N#Cc1cncc(COc2cc(O[C@H]3CCc4c(-c5ccccc5F)cccc43)c(Cl)cc2CN[C@@H](CO)C(=O)O)c1 [Example 3.024]
100 to 500 | N#Cc1cncc(COc2cc(O[C@H]3CCc4c(-c5ccccc5F)cccc43)c(Cl)cc2CN[C@@H](Cc2c[nH]cn2)C(=O)O)c1 [Example 3.103]
< 100 | N#Cc1cncc(COc2cc(O[C@H]3CCc4c(-c5ccccc5F)cccc43)c(Cl)cc2CNC(CO)CO)c1 [Example 3.129]
500 to 20000 | C[C@@H](O)[C@H](NCc1cc(Cl)c(O[C@H]2CCc3c(-c4ccccc4F)cccc32)cc1OCc1cncc(C#N)c1)C(=O)OC(C)(C)C [Example 3.135]
100 to 500 | O=C(O)c1cncc(COc2cc(O[C@H]3CCc4c(-c5ccccc5F)cccc43)c(Cl)cc2CN[C@@H](CO)C(=O)O)c1 [Example 3.029]
100 to 500 | CC(NCc1cc(Cl)c(O[C@H]2CCc3c(-c4ccccc4F)cccc32)cc1OCc1cncc(C#N)c1)C(=O)c1ccc(O)c(O)c1 (stereo partly shown) [Example 3.076]
< 100 | CCN(CC)CCCC(C)NCc1cc(Cl)c(O[C@H]2CCc3c(-c4ccccc4F)cccc32)cc1OCc1cncc(C#N)c1 (stereo partly shown) [Example 3.074]

Continued, compound first:

SMILES | IC50 [nM]
CC(O)C(NCc1cc(Cl)c(O[C@H]2CCc3c(-c4ccccc4F)cccc32)cc1OCc1cncc(C#N)c1)c1nnn[nH]1 (stereo partly shown) [Example 3.134] | < 100
O=C(O)[C@H](CO)NCc1cc(Cl)c(O[C@H]2CCc3c(-c4ccc5c(c4F)OCCO5)cccc32)cc1OCc1cc(Cl)cc(Cl)c1 [Example 3.014] | 500 to 20000
CC(C)OC(=O)[C@H](CO)NCc1cc(Cl)c(O[C@H]2CCc3c(-c4ccc5c(c4F)OCCO5)cccc32)cc1OCc1cncc(C#N)c1 [Example 3.046] | 500 to 20000
CS(=O)(=O)c1cc(COc2cc(O[C@H]3CCc4c(-c5ccccc5F)cccc43)c(Cl)cc2CN[C@@H](CO)C(=O)O)cc(S(C)(=O)=O)c1 [Example 3.001] | < 100
COC(=O)[C@](C)(CO)NCc1cc(Cl)c(O[C@H]2CCc3c(-c4ccc5c(c4F)OCCO5)cccc32)cc1OCc1cncc(C#N)c1 [Example 3.035] | 100 to 500
N#Cc1cncc(COc2cc(O[C@H]3CCc4c(-c5ccc6c(c5F)OCCO6)cccc43)c(Cl)cc2CNC(CO)(CO)CO)c1 [Example 3.057] | < 100
N#Cc1cncc(COc2cc(O[C@H]3CCc4c(-c5ccc6c(c5)OC(F)(F)O6)cccc43)c(Cl)cc2CN[C@@H](CO)C(=O)O)c1 [Example 3.107] | 500 to 20000
O=C(O)[C@H](CO)NCc1cc(Cl)c(O[C@H]2CCc3c(-c4ccc5c(c4F)OCCO5)cccc32)cc1OCc1cc(F)cc(F)c1 [Example 3.012] | 500 to 20000
N#Cc1cncc(COc2cc(O[C@H]3CCc4c(-c5ccc6c(c5)OCO6)cccc43)c(Cl)cc2CN[C@@H](CO)C(=O)O)c1 [Example 3.122] | < 100
O=C(O)[C@H](CO)NCc1cc(Cl)c(O[C@H]2CCc3c(-c4ccc5c(c4F)OCCO5)cccc32)cc1OCc1cncc(Cl)c1 [Example 3.027] | < 100
Cc1cncc(COc2cc(O[C@H]3CCc4c(-c5ccc6c(c5F)OCCO6)cccc43)c(Cl)cc2CN[C@@H](CO)C(=O)O)c1 [Example 3.025] | < 100
N#Cc1cc(C#N)cc(COc2cc(O[C@H]3CCc4c(-c5ccc6c(c5)OCCO6)cccc43)c(Cl)cc2CN[C@@H](CO)C(=O)O)c1 [Example 3.002] | < 100

— patent US10639284B2, “Immunomodulator compounds” (CHEMOCENTRYX, INC., priority 2016, dated 2020)
